In the oligonucleotide strings, read from the 5' end, every base follows the letter of its sugar. An asterisk marks phosphorothioate; unmarked linkages are phosphodiester. Other units and linkages are bracketed, terminal groups are in braces. A string of capitals states the bases alone. e = 2'-O-(2-methoxyethyl) (MOE); [5mC] = 5-methylcytosine; d = 2'-deoxy (DNA)
Test system: human Factor 7 mRNA
Test: Inhibition of human Factor 7 mRNA by 2-10-2 MOE shortmers in HepB3 cells, electroporation, 1,000 nM
Type: cell-based
Settings: electroporation, 1,000 nM oligonucleotide, approximately 24 hours, relative to untreated control cells
Source text: Short antisense oligonucleotides (shortmers) were designed to target a Factor 7 nucleic acid. The shortmers in Table 17 were designed as 2-10-2 MOE gapmers. The gapmers are 14 nucleotides in length, wherein the central gap segment is comprised of 10 2′-deoxynucleotides and is flanked on both sides (in the 5′ and 3′ directions) by wings comprising 2 nucleotides each. Each nucleotide in the 5′ wing segment and each nucleotide in the 3′ wing segment has a 2′-MOE modification. The internucleoside linkages throughout each gapmer are phosphorothioate (P═S) linkages. All cytidine residues throughout each gapmer are 5-methylcytidines.
Shortmers were evaluated for their ability to reduce human Factor 7 mRNA in HepB3 cells and compared with one 5-10-5 chimeric oligonucleotide from Table 16, ISIS 407939. HepB3 cells at a density of 20,000 cells per well in a 96-well plate were transfected using electroporation with 1,000 nM of antisense oligonucleotide. After a treatment period of approximately 24 hours, RNA was isolated from the cells and Factor 7 mRNA levels were measured by real-time RT-PCR, as described herein. Factor 7 mRNA levels were adjusted according to total RNA content as measured by RIBOGREEN®. Results are presented in Table 17 as percent inhibition of Factor 7 mRNA, relative to untreated control cells. ISIS 407939 is the first oligonucleotide in […] to which the shortmers were compared, and is marked by an asterisk (*).

| Substance | % inhibition of human Factor 7 mRNA [%] |
| --- | --- |
| 435667 (antisense eA*eA*dT*dT*d[5mC]*dG*dG*d[5mC]*d[5mC]*dT*dT*dG*eG*eG) [compound 435667] | 16 |
| 435665 (antisense eA*eG*dG*dT*dA*dT*dT*dT*dT*dT*d[5mC]*d[5mC]*eA*e[5mC]) [compound 435665] | 0 |
| 435841 (antisense e[5mC]*eT*d[5mC]*dG*dG*dA*d[5mC]*dA*dA*dA*dA*dG*eA*eG) [compound 435841] | 1 |
| 435692 (antisense e[5mC]*eG*dG*dT*d[5mC]*d[5mC]*dA*dG*d[5mC]*dA*dG*d[5mC]*eT*eG) [compound 435692] | 32 |
| 435730 (antisense eT*eA*dA*dA*d[5mC]*dA*dA*d[5mC]*d[5mC]*dG*d[5mC]*d[5mC]*eT*eT) [compound 435730] | 49 |
| 435773 (antisense e[5mC]*eA*dG*dG*dG*dA*dA*d[5mC]*dA*d[5mC]*d[5mC]*d[5mC]*eT*e[5mC]) [compound 435773] | 57 |
| 435498 (antisense eT*eG*dG*dG*dA*dG*dA*d[5mC]*d[5mC]*d[5mC]*dT*dG*eG*eT) [compound 435498] | 37 |
| 435797 (antisense eA*eA*dT*d[5mC]*dT*dT*dG*dG*d[5mC]*d[5mC]*d[5mC]*d[5mC]*eT*e[5mC]) [compound 435797] | 16 |
| 435668 (antisense eT*eG*d[5mC]*d[5mC]*dA*dT*dG*dG*dA*d[5mC]*dA*d[5mC]*eT*e[5mC]) [compound 435668] | 75 |
| 435831 (antisense eG*eA*dT*d[5mC]*dT*dT*d[5mC]*dA*d[5mC]*dA*dT*dA*eG*e[5mC]) [compound 435831] | 51 |
| 435751 (antisense e[5mC]*eT*dT*dG*d[5mC]*d[5mC]*dA*dG*dG*dT*d[5mC]*d[5mC]*eT*e[5mC]) [compound 435751] | 28 |
| 435675 (antisense eT*eG*dT*d[5mC]*dG*dA*dA*dA*d[5mC]*dA*dG*dT*eG*eG) [compound 435675] | 24 |
| 435786 (antisense eA*eG*dG*dT*dG*dA*d[5mC]*d[5mC]*d[5mC]*dG*dT*dG*eA*eG) [compound 435786] | 68 |
| 435649 (antisense eA*eG*dG*d[5mC]*dA*dG*dA*dA*dG*d[5mC]*dA*dG*eA*eT) [compound 435649] | 21 |
| 435809 (antisense e[5mC]*eT*dG*dA*d[5mC]*dA*dA*dT*dG*dT*dG*dA*eT*eG) [compound 435809] | 5 |
| 435735 (antisense eT*eG*dG*dT*dG*dA*dT*dG*d[5mC]*dT*dT*d[5mC]*eT*eG) [compound 435735] | 81 |
| 435811 (antisense eG*eT*dG*dG*dT*d[5mC]*dA*dA*dG*dG*dA*dT*eG*eA) [compound 435811] | 27 |
| 435838 (antisense eT*e[5mC]*d[5mC]*dA*dT*dG*dG*dA*d[5mC]*dA*d[5mC]*dT*eA*eA) [compound 435838] | 29 |
| 435792 (antisense eT*eG*d[5mC]*dT*dG*dA*dA*dG*dA*dA*dA*d[5mC]*eT*eG) [compound 435792] | 9 |
| 435693 (antisense eG*eG*d[5mC]*dA*dG*dT*d[5mC]*d[5mC]*dT*dG*dG*dG*eT*e[5mC]) [compound 435693] | 43 |
| 435635 (antisense e[5mC]*eA*dT*dG*dA*dT*dG*dA*dA*dA*dT*d[5mC]*eT*e[5mC]) [compound 435635] | 0 |
| 435639 (antisense eT*e[5mC]*d[5mC]*dA*dG*dA*dA*d[5mC]*dA*dG*d[5mC]*dT*eT*e[5mC]) [compound 435639] | 31 |
| 435812 (antisense eG*e[5mC]*dT*dG*dA*dG*d[5mC]*dA*dG*dA*dG*dA*eT*e[5mC]) [compound 435812] | 35 |
| 435779 (antisense eT*eG*dA*dG*d[5mC]*dG*d[5mC]*dG*dG*dA*dA*dG*eA*eA) [compound 435779] | 50 |
| 435716 (antisense eT*eT*dT*dT*dG*d[5mC]*dA*dG*d[5mC]*d[5mC]*dA*d[5mC]*eT*e[5mC]) [compound 435716] | 22 |
| 435742 (antisense eA*eT*dG*dT*dG*dA*dG*dG*dG*dT*dT*d[5mC]*eA*eT) [compound 435742] | 11 |

| Substance | % inhibition of human Factor 7 mRNA [%] |
| --- | --- |
| 435850 (antisense e[5mC]*eT*dT*dG*dG*d[5mC]*d[5mC]*dA*dG*dT*dG*dT*eG*eG) [compound 435850] | 15 |
| 435752 (antisense eT*eG*d[5mC]*dA*dG*d[5mC]*dT*dT*dG*d[5mC]*d[5mC]*dA*eG*eG) [compound 435752] | 12 |
| 435728 (antisense eA*e[5mC]*dA*d[5mC]*dA*dT*dG*dG*dA*dG*dT*d[5mC]*eA*eG) [compound 435728] | 16 |
| 435634 (antisense eT*eG*dA*dA*dA*dT*d[5mC]*dT*d[5mC]*dT*dG*d[5mC]*eA*eG) [compound 435634] | 5 |
| 435826 (antisense eA*eA*dG*dT*dG*dG*d[5mC]*dT*dG*dG*d[5mC]*dT*eG*eA) [compound 435826] | 27 |
| 435835 (antisense eT*eT*dA*dT*dT*dT*dG*dG*dG*d[5mC]*dA*dT*eG*eG) [compound 435835] | 7 |
| 435828 (antisense eG*eA*d[5mC]*d[5mC]*dT*dG*d[5mC]*d[5mC]*d[5mC]*dA*dT*dT*eT*eT) [compound 435828] | 0 |
| 435484 (antisense e[5mC]*e[5mC]*dT*dG*dG*dG*dT*d[5mC]*dA*dT*d[5mC]*dA*eG*e[5mC]) [compound 435484] | 45 |
| 435813 (antisense eG*eG*dA*dT*dG*d[5mC]*dA*d[5mC]*dA*d[5mC]*d[5mC]*dA*eG*eG) [compound 435813] | 55 |
| 435849 (antisense eT*eG*d[5mC]*d[5mC]*dG*dT*dA*dG*dT*dG*dG*d[5mC]*e[5mC]*eG) [compound 435849] | 31 |
| 435749 (antisense e[5mC]*eA*dG*d[5mC]*d[5mC]*dA*dG*dG*dG*d[5mC]*d[5mC]*dT*eG*eG) [compound 435749] | 29 |
| 435680 (antisense eG*eT*dG*d[5mC]*dT*d[5mC]*dG*d[5mC]*dT*dG*dA*dG*eG*eT) [compound 435680] | 52 |
| 435715 (antisense e[5mC]*eA*dG*d[5mC]*d[5mC]*dA*d[5mC]*dT*d[5mC]*dG*dA*dT*eG*eT) [compound 435715] | 35 |
| 435839 (antisense eG*eG*dT*d[5mC]*dA*dG*d[5mC]*dT*dG*dG*dT*d[5mC]*eT*eG) [compound 435839] | 14 |
| 435724 (antisense e[5mC]*eT*dG*dA*dG*dG*d[5mC]*d[5mC]*dA*dG*d[5mC]*dA*eG*eA) [compound 435724] | 52 |
| 435754 (antisense eT*e[5mC]*dA*dG*d[5mC]*dA*dA*dG*dA*dG*dT*dG*e[5mC]*eA) [compound 435754] | 16 |
| 435800 (antisense eG*eG*dA*d[5mC]*d[5mC]*d[5mC]*dA*dA*dA*dG*dT*dG*eG*eG) [compound 435800] | 0 |
| 435671 (antisense eT*e[5mC]*dA*d[5mC]*d[5mC]*dA*dA*d[5mC]*dA*dA*d[5mC]*dA*eG*eG) [compound 435671] | 28 |
| 435503 (antisense eT*eG*dT*dA*d[5mC]*dT*dG*dG*dG*dA*dG*dA*e[5mC]*e[5mC]) [compound 435503] | 17 |
| 435761 (antisense e[5mC]*eA*dG*dA*dT*dG*dA*dA*dA*dA*d[5mC]*dT*eT*eG) [compound 435761] | 5 |
| 435847 (antisense eT*eG*dG*dT*dG*dT*dG*d[5mC]*dA*d[5mC]*dA*d[5mC]*eA*eT) [compound 435847] | 36 |
| 435679 (antisense e[5mC]*eG*d[5mC]*dT*dG*dA*dG*dG*dT*d[5mC]*dG*dT*eG*e[5mC]) [compound 435679] | 62 |
| 435732 (antisense eG*eA*dA*dA*dA*dG*dT*dG*dA*dG*dA*dG*e[5mC]*eT) [compound 435732] | 0 |
| 435783 (antisense eA*eA*dA*d[5mC]*d[5mC]*dG*dG*d[5mC]*dA*dT*dG*d[5mC]*eG*e[5mC]) [compound 435783] | 49 |
| 435480 (antisense eG*eG*dT*d[5mC]*dA*dT*d[5mC]*dA*dG*d[5mC]*d[5mC]*dG*eG*eG) [compound 435480] | 53 |
| 435694 (antisense e[5mC]*eT*dG*d[5mC]*dA*dG*dG*d[5mC]*dA*dG*dT*d[5mC]*e[5mC]*eT) [compound 435694] | 39 |

Source: patent US20120214862A1, “MODULATION OF FACTOR 7 EXPRESSION” (ISIS Pharmaceuticals, Inc., priority 2009, published 2012)
